Measurements: the NIST ThermoML archive (doi:10.1016/j.jct.2012.09.012)

Experiments:
[1] = molar heat capacity at constant pressure; settings: 101 kPa, Liquid, Small sample (50 mg) DSC
[2] = Liquid, Vibrating tube method

CC1=CC[C@H]2C[C@@H]1C2(C)C [(S)-2-pinene]
[1]
Settings | molar heat capacity at constant pressure [J/K/mol]
313.16 K | 250.67
318.16 K | 252.03
323.16 K | 256.12
328.22 K | 257.48
333.22 K | 260.21
338.19 K | 264.29
343.18 K | 267.02
348.15 K | 269.74
353.18 K | 272.47
358.15 K | 275.19
363.18 K | 277.92
368.17 K | 279.28
373.21 K | 282
378.2 K | 284.73
383.17 K | 287.45
388.2 K | 291.54
393.17 K | 292.9
398.2 K | 294.27
403.19 K | 296.99
408.16 K | 299.71
413.19 K | 301.08
418.19 K | 303.8

mass density [kg/m3], [2]
Settings | 283.15 K | 298.15 K | 313.15 K | 328.15 K | 343.15 K | 358.15 K
20000 kPa | 880 | 868.8 | 858 | 846.7 | 835.9 | 825
25000 kPa | 883.2 | 872.1 | 861.3 | 850.4 | 839.7 | 829.2
30000 kPa | 886.3 | 875.3 | 864.7 | 854 | 843.8 | 833.3
35000 kPa | 889.4 | 878.6 | 867.9 | 857.5 | 847.7 | 837.4
40000 kPa | 892.5 | 881.9 | 871.3 | 861.1 | 851.4 | 841.5
